Source: the NIST ThermoML archive (doi:10.1021/acs.jced.5b00242)

Experiments:
[1] = refractive index (Na D-line) (dimensionless); xn = mol fraction of the nth substance listed; settings: 101 kPa, Liquid, Standard Abbe refractometry
[2] = xn = mol fraction of the nth substance listed; settings: 101 kPa, Liquid; for viscosity: Stabinger Viscometer; for mass density: Vibrating tube method

CCn1cc[n+](C)c1.O=C([O-])[C@@H]1CCCN1 [1-ethyl-3-methyl-1H-imidazolium L-prolinate] + CCn1cc[n+](C)c1.N#C[C-](C#N)C#N
Settings	mass density, [2] [kg/m3]	refractive index, [1]	viscosity, [2] [mPa·s]
293.15 K, x2 = 0	1145.9	1.52291	1928.4
293.15 K, x2 = 0.2501	1131.7	1.52057	731.38
293.15 K, x2 = 0.5002	1116.4	1.5191	183.74
293.15 K, x2 = 0.7501	1100.6	1.51665	49.1
298.15 K, x2 = 0	1142.8	1.52151	1194.6
298.15 K, x2 = 0.2501	1128.4	1.51913	474.82
298.15 K, x2 = 0.5002	1113.1	1.5176	131.11
298.15 K, x2 = 0.7501	1097.2	1.51508	38.6
303.15 K, x2 = 0	1139.6	1.52009	771.51
303.15 K, x2 = 0.2501	1125.1	1.51769	320.94
303.15 K, x2 = 0.5002	1109.8	1.51611	96.6
303.15 K, x2 = 0.7501	1093.8	1.51349	30.96
308.15 K, x2 = 0	1136.4	1.5187	517.61
308.15 K, x2 = 0.2501	1121.8	1.51622	224.85
308.15 K, x2 = 0.5002	1106.6	1.5146	73.15
308.15 K, x2 = 0.7501	1090.4	1.5119	25.29
313.15 K, x2 = 0	1133.2	1.51731	359.21
313.15 K, x2 = 0.2501	1118.7	1.51477	162.54
313.15 K, x2 = 0.5002	1103.3	1.51306	56.72
313.15 K, x2 = 0.7501	1087	1.51033	21
318.15 K, x2 = 0	1130.1	1.51591	256.92
318.15 K, x2 = 0.2501	1115.5	1.51333	120.81
318.15 K, x2 = 0.5002	1100.1	1.51153	44.93
318.15 K, x2 = 0.7501	1083.7	1.50875	17.68
323.15 K, x2 = 0	1127.1	1.51454	188.66
323.15 K, x2 = 0.2501	1112.4	1.51191	92
323.15 K, x2 = 0.5002	1096.8	1.51006	36.25
323.15 K, x2 = 0.7501	1080.3	1.50717	15.08
328.15 K, x2 = 0	1124	1.51315	141.76
328.15 K, x2 = 0.2501	1109.3	1.51046	71.61
328.15 K, x2 = 0.5002	1093.6	1.50858	29.73
328.15 K, x2 = 0.7501	1077	1.50561	13
333.15 K, x2 = 0	1121	1.51177	108.85
333.15 K, x2 = 0.2501	1106.2	1.50899	56.8
333.15 K, x2 = 0.5002	1090.4	1.5071	24.75
333.15 K, x2 = 0.7501	1073.6	1.504	11.32
338.15 K, x2 = 0	1118	1.51035	85.12
338.15 K, x2 = 0.2501	1103.1	1.50752	45.83
338.15 K, x2 = 0.5002	1087.2	1.50564	20.87
338.15 K, x2 = 0.7501	1070.3	1.50249	9.95
343.15 K, x2 = 0	1115	1.50897	67.69
343.15 K, x2 = 0.2501	1100	1.50611	37.55
343.15 K, x2 = 0.5002	1084	1.50412	17.8
343.15 K, x2 = 0.7501	1067	1.50096	8.82
348.15 K, x2 = 0	1112	1.50757	54.73
348.15 K, x2 = 0.2501	1096.9	1.50461	31.2
348.15 K, x2 = 0.5002	1080.8	1.50269	15.35
348.15 K, x2 = 0.7501	1063.8	1.49941	7.87
353.15 K, x2 = 0	1109.1	1.5062	44.89
353.15 K, x2 = 0.2501	1093.8	1.50319	26.24
353.15 K, x2 = 0.5002	1077.7	1.50126	13.37
353.15 K, x2 = 0.7501	1060.5	1.49791	7.07

CCn1cc[n+](C)c1.C[C@H](N)C(=O)[O-] [1-ethyl-3-methylimidazolium L-alaninate] + CCn1cc[n+](C)c1.N#C[C-](C#N)C#N
Settings	mass density, [2] [kg/m3]	refractive index, [1]	viscosity, [2] [mPa·s]
293.15 K, x2 = 0	1126.3	1.51366	382.06
293.15 K, x2 = 0.2506	1113.7	1.51476	146.57
293.15 K, x2 = 0.5	1102.2	1.51409	78.6
293.15 K, x2 = 0.7499	1092.9	1.51367	31.55
298.15 K, x2 = 0	1123	1.51223	263.98
298.15 K, x2 = 0.2506	1110.4	1.5133	107.2
298.15 K, x2 = 0.5	1098.9	1.51258	60.26
298.15 K, x2 = 0.7499	1089.3	1.5121	25.68
303.15 K, x2 = 0	1119.8	1.51081	187.79
303.15 K, x2 = 0.2506	1107.1	1.51184	80.47
303.15 K, x2 = 0.5	1095.6	1.51107	46.89
303.15 K, x2 = 0.7499	1085.9	1.51053	21.18
308.15 K, x2 = 0	1116.6	1.50937	137.47
308.15 K, x2 = 0.2506	1104	1.51038	61.83
308.15 K, x2 = 0.5	1092.3	1.5095	37.29
308.15 K, x2 = 0.7499	1082.6	1.50893	17.74
313.15 K, x2 = 0	1113.5	1.50793	103.54
313.15 K, x2 = 0.2506	1100.8	1.50888	49.16
313.15 K, x2 = 0.5	1089.1	1.50796	30.22
313.15 K, x2 = 0.7499	1079.2	1.50731	14.83
318.15 K, x2 = 0	1110.5	1.50651	79.34
318.15 K, x2 = 0.2506	1097.8	1.50736	38.96
318.15 K, x2 = 0.5	1085.9	1.50643	24.9
318.15 K, x2 = 0.7499	1075.9	1.50568	12.94
323.15 K, x2 = 0	1107.5	1.50505	62.21
323.15 K, x2 = 0.2506	1094.6	1.5059	31.75
323.15 K, x2 = 0.5	1082.7	1.50488	20.83
323.15 K, x2 = 0.7499	1072.7	1.50401	11.23
328.15 K, x2 = 0	1104.4	1.50358	49.69
328.15 K, x2 = 0.2506	1091.5	1.50436	26.27
328.15 K, x2 = 0.5	1079.5	1.50338	17.64
328.15 K, x2 = 0.7499	1069.4	1.50244	9.84
333.15 K, x2 = 0	1101.3	1.50217	40.5
333.15 K, x2 = 0.2506	1088.4	1.50293	22.29
333.15 K, x2 = 0.5	1076.3	1.50191	15.08
333.15 K, x2 = 0.7499	1066.1	1.50085	8.51
338.15 K, x2 = 0	1098.3	1.50074	33.22
338.15 K, x2 = 0.2506	1085.3	1.50148	18.7
338.15 K, x2 = 0.5	1073.1	1.50039	13.09
338.15 K, x2 = 0.7499	1062.9	1.49926	7.74
343.15 K, x2 = 0	1095.2	1.49932	27.72
343.15 K, x2 = 0.2506	1082.2	1.49997	16.04
343.15 K, x2 = 0.5	1069.9	1.49888	11.45
343.15 K, x2 = 0.7499	1059.6	1.49771	6.93
348.15 K, x2 = 0	1092.1	1.49795	23.38
348.15 K, x2 = 0.2506	1079.1	1.49851	13.89
348.15 K, x2 = 0.5	1066.6	1.49739	10.1
348.15 K, x2 = 0.7499	1056.3	1.49613	6.26
353.15 K, x2 = 0	1088.9	1.49656	20.03
353.15 K, x2 = 0.2506	1075.9	1.49704	12.28
353.15 K, x2 = 0.5	1063.1	1.49589	8.93
353.15 K, x2 = 0.7499	1052.9	1.49456	5.45
